{
  "source": "patent US11279733B2",
  "about": "“Peptide antibiotics” (priority 2017, dated 2022)",
  "key": {"in vitro": {"assay": "in vitro", "conditions": "human", "experimental": "Cytotoxicity of the synthesised peptides was evaluated by comparison with commercially available colistin (polymyxin E), polymyxin B (Sigma chemical Co., St. Louis, Mo., U.S.A.) and synthetic octapeptin C4 by conducting lactate dehydrogenase (LDH) assay. CC50 values calculated based on curve fitting of dose dependent inhibition of cell growth represented the cytotoxicity of the peptide. Human kidney 2 (HK2) cells were seeded as 2000 cells per well in a 384 well cell culture plate in a final volume of 20 μL in DMEM/F12 medium (Invitrogen #11330057), in which 10% of FBS was added. Cells were incubated for 24 hours at 37° C., 5% CO2 to allow cells to attach to the plates. Similar conditions were employed for HEK293 and HepG2 cytotoxicity assays.\nColistin and polymyxin B were tested from a range of 2 mM to 0.9 μM. 120 μL of the 1 mM stock solutions in water of each synthesised peptide were freeze-dried and processed for LDH assay. After freeze-dry procedure, the compounds were reconstituted into 600 μM solutions using culture media. All tested compounds were diluted from 600 μM to 0.27 μM in 3-fold dilutions. Then 20 μL of each dilution was added into 20 uL of culture medium in quadruplicate to reach the final concentrations. The cells were incubated with the compounds for 24 h at 37° C., 5% CO2. After the incubation, 5 μL of culture medium was added to 50 μL of LDH assay buffer and incubated for 1 h at room temperature. The absorbance was read at 450 nm using Polarstar. The data was then analysed by Prism software. […] Nephrotoxicity Assessment in Human Proximal Tubule Cells."}, "K. pneumoniae ATCC 13883": {"system": "K. pneumoniae ATCC 13883", "conditions": "ATCC 13883", "summary_of_the_method": "(§1)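 Mid-log cultures grown in Mueller Hinton broth at 37° C were tested by 2-fold broth microdilution at 5×10^5 CFU/mL final. Compounds were dissolved in water and tested over a final range of 32 to 0.015 μg/mL.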"}, "[1]": {"system": "K. pneumoniae ATCC 700603, MDR", "conditions": "ATCC 700603", "summary_of_the_method": "as §1"}, "P. aeruginosa ATCC 27853": {"system": "P. aeruginosa ATCC 27853", "conditions": "ATCC 27853", "summary_of_the_method": "as §1"}, "E. coli ATCC 25922": {"system": "E. coli ATCC 25922", "conditions": "ATCC 25922", "summary_of_the_method": "as §1"}, "[2]": {"system": "K. pneumoniae ATCC BAA-2146, NDM-1 pos", "conditions": "ATCC BAA-2146", "summary_of_the_method": "as §1"}, "A. baumannii ATCC 19606": {"system": "A. baumannii ATCC 19606", "conditions": "ATCC 19606", "summary_of_the_method": "as §1"}, "[3]": {"system": "P. aeruginosa GN_043, PmxR", "summary_of_the_method": "as §1"}},
  "note": "Read-outs that look alike come from different tables or passages of the source. Positions of bridges follow the written chain, without caps; N, C: chain ends. Non-standard residues stand in square brackets, D forms with d. Residues, ends and D or L forms follow the SMILES beside them. *: point of attachment. Decanoyl(3R-OH) = CCCCCCC[C@@H](O)CC(=O)*; Phe(4-NH2) = Nc1ccc(C[C@H](N)C(=O)O)cc1; dDab = NCC[C@@H](N)C(=O)O; Dab = NCC[C@H](N)C(=O)O",
  "data": [
    {"smiles": "CCCCCCC[C@@H](O)CC(=O)N[C@H](CCN)C(=O)N[C@H]1CCNC(=O)[C@H]([C@@H](C)O)NC(=O)[C@H](Cc2ccc(N)cc2)NC(=O)[C@H](CCN)NC(=O)[C@H](CC(C)C)NC(=O)[C@@H](Cc2ccccc2)NC(=O)[C@H](CCN)NC1=O", "note": "[compound 5605, 3(R)OH-nC9CO-D-Dab-cyc[L-Dab-L-Dab-D-Phe-L-Leu-L-Dab-L-4NH2Phe-L-Thr]] ({Decanoyl(3R-OH)}-[dDab][Dab][Dab][dF]L[Dab][Phe(4-NH2)]T; lactam 2-C)", "values": [
      {"measurement": "CC50 at 24 h", "setting": "in vitro", "value": 115, "unit": "µM"},
      {"measurement": "MIC K. pneumoniae ATCC 13883", "setting": "K. pneumoniae ATCC 13883", "value": 16, "unit": "µg/mL"},
      {"measurement": "MIC K. pneumoniae ATCC 700603, MDR", "setting": "[1]", "value": 32, "unit": "µg/mL"},
      {"measurement": "MIC P. aeruginosa ATCC 27853", "setting": "P. aeruginosa ATCC 27853", "value": 8, "unit": "µg/mL"},
      {"measurement": "MIC E. coli ATCC 25922", "setting": "E. coli ATCC 25922", "value": 16, "unit": "µg/mL"},
      {"measurement": "MIC K. pneumoniae ATCC BAA-2146, NDM-1 pos", "setting": "[2]", "value": 16, "unit": "µg/mL"}
    ]},
    {"smiles": "CCCCCCC[C@@H](O)CC(=O)N[C@H](CO)C(=O)N[C@H]1CCNC(=O)[C@H](CC(C)C)NC(=O)[C@H](CCN)NC(=O)[C@H](CCN)NC(=O)[C@H](CC(C)C)NC(=O)[C@@H](Cc2ccccc2)NC(=O)[C@H](CCN)NC1=O", "note": "[compound 918, 3(R)OH-nC9CO-D-Ser-cyc[L-Dab-L-Dab-D-Phe-L-Leu-L-Dab-L-Dab-L-Leu]] ({Decanoyl(3R-OH)}-[dS][Dab][Dab][dF]L[Dab][Dab]L; lactam 2-C)", "values": [
      {"measurement": "CC50 at 24 h", "setting": "in vitro", "value": 113, "unit": "µM"},
      {"measurement": "MIC, K. pneumoniae ATCC 13883", "setting": "K. pneumoniae ATCC 13883", "value": 8, "unit": "µg/mL"},
      {"measurement": "MIC, K. pneumoniae ATCC 700603, MDR", "setting": "[1]", "value": 8, "unit": "µg/mL"},
      {"measurement": "MIC, P. aeruginosa ATCC 27853", "setting": "P. aeruginosa ATCC 27853", "value": 8, "unit": "µg/mL"},
      {"measurement": "MIC, E. coli ATCC 25922", "setting": "E. coli ATCC 25922", "value": 8, "unit": "µg/mL"},
      {"measurement": "MIC, A. baumannii ATCC 19606", "setting": "A. baumannii ATCC 19606", "value": 4, "unit": "µg/mL"},
      {"measurement": "MIC, K. pneumoniae ATCC BAA-2146, NDM-1 pos", "setting": "[2]", "value": 4, "unit": "µg/mL"},
      {"measurement": "MIC P. aeruginosa GN_043, PmxR", "setting": "[3]; Table 6, polymyxin-resistant", "value": ">32", "unit": "µg/mL"}
    ]},
    {"smiles": "CCCCCCC[C@@H](O)CC(=O)N[C@H](CO)C(=O)N[C@H]1CCNC(=O)[C@H]([C@@H](C)O)NC(=O)[C@H](CCN)NC(=O)[C@H](CCN)NC(=O)[C@H](CC(C)C)NC(=O)[C@@H](Cc2ccccc2)NC(=O)[C@H](CCN)NC1=O", "note": "[compound 754, 3(R)OH-nC9CO-D-Ser-cyc[L-Dab-L-Dab-D-Phe-L-Leu-L-Dab-L-Dab-L-Thr]] ({Decanoyl(3R-OH)}-[dS][Dab][Dab][dF]L[Dab][Dab]T; lactam 2-C)", "values": [
      {"measurement": "CC50 at 24 h", "setting": "in vitro", "value": 154, "unit": "µM"},
      {"measurement": "MIC K. pneumoniae ATCC 13883", "setting": "K. pneumoniae ATCC 13883", "value": 32, "unit": "µg/mL"},
      {"measurement": "MIC K. pneumoniae ATCC 700603, MDR", "setting": "[1]", "value": 32, "unit": "µg/mL"},
      {"measurement": "MIC P. aeruginosa ATCC 27853", "setting": "P. aeruginosa ATCC 27853", "value": 4, "unit": "µg/mL"},
      {"measurement": "MIC E. coli ATCC 25922", "setting": "E. coli ATCC 25922", "value": 32, "unit": "µg/mL"},
      {"measurement": "MIC A. baumannii ATCC 19606", "setting": "A. baumannii ATCC 19606", "value": 16, "unit": "µg/mL"},
      {"measurement": "MIC K. pneumoniae ATCC BAA-2146, NDM-1 pos", "setting": "[2]", "value": 32, "unit": "µg/mL"},
      {"measurement": "MIC P. aeruginosa GN_043, PmxR", "setting": "[3]; P. aeruginosa GN_043, PmxR", "value": ">32", "unit": "µg/mL"}
    ]},
    {"smiles": "CCCCCCC[C@@H](O)CC(=O)N[C@H](CCN)C(=O)N[C@H]1CCNC(=O)[C@H](Cc2ccccc2)NC(=O)[C@H](CCN)NC(=O)[C@H](CCN)NC(=O)[C@H](Cc2ccccc2)NC(=O)[C@@H](Cc2ccccc2)NC(=O)[C@H](CCN)NC1=O", "note": "[compound 5005, 3(R)OH-nC9CO-D-Dab-cyc[L-Dab-L-Dab-D-Phe-L-Phe-L-Dab-L-Dab-L-Phe]] ({Decanoyl(3R-OH)}-[dDab][Dab][Dab][dF]F[Dab][Dab]F; lactam 2-C)", "values": [
      {"measurement": "CC50 at 24 h", "setting": "in vitro", "value": 54, "unit": "µM"},
      {"measurement": "MIC K. pneumoniae ATCC 13883", "setting": "K. pneumoniae ATCC 13883", "value": 4, "unit": "µg/mL"},
      {"measurement": "MIC K. pneumoniae ATCC 700603, MDR", "setting": "[1]", "value": 8, "unit": "µg/mL"},
      {"measurement": "MIC P. aeruginosa ATCC 27853", "setting": "P. aeruginosa ATCC 27853", "value": 2, "unit": "µg/mL"},
      {"measurement": "MIC E. coli ATCC 25922", "setting": "E. coli ATCC 25922", "value": 8, "unit": "µg/mL"},
      {"measurement": "MIC A. baumannii ATCC 19606", "setting": "A. baumannii ATCC 19606", "value": ">32", "unit": "µg/mL"},
      {"measurement": "MIC K. pneumoniae ATCC BAA-2146, NDM-1 pos", "setting": "[2]", "value": 8, "unit": "µg/mL"},
      {"measurement": "MIC P. aeruginosa GN_043, PmxR", "setting": "[3]; polymyxin-resistant", "value": 2, "unit": "µg/mL"}
    ]}
  ]
}
